Series [1] in a line: Cytotoxicity against mouse B16-BL6 cells assessed as cell growth inhibition after 24 hrs by MTT assay. The class given is cell-based. In general terms: Formazan colour is commonly taken as a measure of viable cells.
Series [2] has as its system B16-BL6. The experiment in a line: Antiangiogenic activity against mouse B16-BL6 cells xenografted in C57BL/6 mouse assessed as decrease in number of vessels oriented towards the tumor mass at 100 mg/kg/day, ip administered for 4 days measured on day 5 by dissecting microscopic analysis. The format is functional, organism-based.
The target in series [3] is T1, Aminopeptidase N (Mus musculus, UniProt P97449).
T1 sequence (P97449 whole entry): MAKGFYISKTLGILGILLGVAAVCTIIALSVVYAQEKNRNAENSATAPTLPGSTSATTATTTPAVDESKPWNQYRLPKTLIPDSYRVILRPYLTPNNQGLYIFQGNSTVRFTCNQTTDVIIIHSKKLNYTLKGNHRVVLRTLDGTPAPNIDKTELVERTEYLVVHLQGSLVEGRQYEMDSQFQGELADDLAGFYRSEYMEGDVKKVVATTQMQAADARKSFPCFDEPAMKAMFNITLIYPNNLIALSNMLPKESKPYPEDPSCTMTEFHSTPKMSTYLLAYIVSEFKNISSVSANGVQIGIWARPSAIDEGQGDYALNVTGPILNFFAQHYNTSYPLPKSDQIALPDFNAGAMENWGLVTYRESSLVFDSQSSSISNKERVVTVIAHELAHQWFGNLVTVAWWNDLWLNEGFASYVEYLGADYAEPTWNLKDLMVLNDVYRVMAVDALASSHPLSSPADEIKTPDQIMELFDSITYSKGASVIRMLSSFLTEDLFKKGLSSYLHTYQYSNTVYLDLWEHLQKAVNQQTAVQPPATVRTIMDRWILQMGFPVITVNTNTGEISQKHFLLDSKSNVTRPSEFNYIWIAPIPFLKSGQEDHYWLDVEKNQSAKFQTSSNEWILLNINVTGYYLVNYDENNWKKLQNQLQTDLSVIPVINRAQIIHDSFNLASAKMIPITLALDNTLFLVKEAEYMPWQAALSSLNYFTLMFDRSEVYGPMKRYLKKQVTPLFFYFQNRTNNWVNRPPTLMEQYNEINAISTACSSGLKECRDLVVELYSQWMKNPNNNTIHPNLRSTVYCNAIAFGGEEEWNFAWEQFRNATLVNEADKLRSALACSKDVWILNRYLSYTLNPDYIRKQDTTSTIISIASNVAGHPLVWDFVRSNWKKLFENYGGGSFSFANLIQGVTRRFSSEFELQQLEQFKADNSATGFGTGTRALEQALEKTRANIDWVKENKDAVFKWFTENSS
The experiment in a line: Inhibition of APN in mouse B16-BL6 cell surface assessed as inhibition of L-Leu-p-nitroanilide substrate hydrolysis incubated for 5 mins before substrate addition by UV-Vis spectrophotometric analysis.

The test system of series [4] is HUVEC. The experiment in a line: Antiangiogenesis activity against HUVEC assessed as decrease in capillary tubular structure formation at 25 ug/ml after 8 hrs by microscopic analysis. The format is functional, cell-based. To be noted: Homo sapiens.
The test system of series [5] is ES2. The experiment in a line: Inhibition of human ES2 cell invasion at 15 to 150 uM after 8 hrs by Matrigel invasion assay. The class given is functional, cell-based.
Series [6] has as its system ES2. Put plainly: Inhibition of human ES2 cell migration at 150 uM by crystal violet staining based microscopic analysis. The class given is functional.
Series [7] in a line: Cytotoxicity against human ES2 cells assessed as cell growth inhibition rate at 50 ug/ml after 24 hrs by MTT assay. The format is cell-based. To be noted: read-out: GI.
For series [8], the target named is 72 kDa type IV collagenase (Homo sapiens, UniProt P08253). The experiment in a line: Inhibition of recombinant MMP-2 using succinylated gelatin as substrate incubated for 10 mins before addition of substrate measured after 60 mins by UV-Vis spectrophotometric analysis.
The nature of series [9]: Cytotoxicity against human ES2 cells assessed as cell growth inhibition rate at 5 ug/ml after 24 hrs by MTT assay. The class given is cell-based. The note with it: read-out: GI.
Series [10] concerns the target T1, Aminopeptidase N. The experiment in a line: Inhibition of mouse APN.

Structures are written as SMILES. Active and inactive are the calls of the source. The calls are words filed in the database; no cut-off is given here.

As a reminder, the GI50 is the concentration giving 50% growth inhibition. The IC50 is the concentration needed to halve the response being measured. As a reminder, the Ki is a dissociation constant, usually derived from enzyme kinetics or from competition with a known ligand. Read a low Ki as a stronger hold on the target.

Chain of 72 kDa type IV collagenase (P08253 whole entry): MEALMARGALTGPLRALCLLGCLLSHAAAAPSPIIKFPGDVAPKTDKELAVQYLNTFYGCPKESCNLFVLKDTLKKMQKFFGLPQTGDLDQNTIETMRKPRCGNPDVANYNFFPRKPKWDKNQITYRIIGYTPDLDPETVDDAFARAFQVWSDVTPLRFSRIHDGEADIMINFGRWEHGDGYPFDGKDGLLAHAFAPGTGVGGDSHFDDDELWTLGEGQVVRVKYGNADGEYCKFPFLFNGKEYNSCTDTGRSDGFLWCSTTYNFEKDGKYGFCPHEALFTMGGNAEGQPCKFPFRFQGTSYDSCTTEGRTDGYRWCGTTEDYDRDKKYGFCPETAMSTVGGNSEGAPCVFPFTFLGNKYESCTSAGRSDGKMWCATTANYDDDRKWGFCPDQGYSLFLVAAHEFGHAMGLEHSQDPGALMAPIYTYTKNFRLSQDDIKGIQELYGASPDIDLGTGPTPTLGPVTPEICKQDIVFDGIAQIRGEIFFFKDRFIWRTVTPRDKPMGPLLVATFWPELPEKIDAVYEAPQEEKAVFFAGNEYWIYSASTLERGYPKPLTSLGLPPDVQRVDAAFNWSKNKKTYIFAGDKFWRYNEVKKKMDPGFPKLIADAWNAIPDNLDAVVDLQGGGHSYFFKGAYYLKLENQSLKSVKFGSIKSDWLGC

Regarding `CC(C)C[C@H](NC(=O)[C@@H](O)[C@H](N)Cc1ccccc1)C(=O)O` [UBENIMEX], the GI50 at 24 h in series [1] was above 500 µM. Moreover, the outcome in series [2] and in [4] was Active. For the same compound, the IC50 came out at 23.2 µM in [3] and 276 µM in series [8]. Moreover, the inhibition result in series [5] and in series [6] was “Active” in each case. For the same compound, the inhibition at 24 h, 50 ug/ml in series [7] was 2.89%. For the same compound, the inhibition at 24 h, 5 ug/ml in series [9] is below 1%. Further, in series [10], the affinity corresponds to a Ki of 3.03 µM.

The record behind these values is ChEMBL document CHEMBL2203020, “Development of Synthetic Aminopeptidase N/CD13 Inhibitors to Overcome Cancer Metastasis and Angiogenesis” (ACS Med Chem Lett, 2012).
